{
  "source": "paper PMC3024462",
  "about": "(Journal of medicinal chemistry, 2010)",
  "key": {"HIV-1MDR/G (X4)": {"tested_on": "HIV-1MDR/G (X4)", "format": "cell-based", "details": "number in parentheses"}, "HIV-1MDR/B (X4)": {"tested_on": "HIV-1MDR/B (X4)", "format": "cell-based", "details": "number in parentheses"}, "HIV-1MDR/MM (R5)": {"tested_on": "HIV-1MDR/MM (R5)", "format": "cell-based", "details": "number in parentheses"}, "HIV-1MDR/TM (X4)": {"tested_on": "HIV-1MDR/TM (X4)", "format": "cell-based", "details": "number in parentheses"}, "HIV-1MDR/JSL (R5)": {"tested_on": "HIV-1MDR/JSL (R5)", "format": "cell-based", "details": "number in parentheses"}, "HIV-1MDR/C (X4)": {"tested_on": "HIV-1MDR/C (X4)", "format": "cell-based", "details": "number in parentheses"}, "HIV-1 protease": {"molecular_target": "HIV-1 protease (Human immunodeficiency virus type 1 group M subtype B, UniProt P04585)", "assay": "HIV-1 protease enzyme inhibitory assay", "format": "biochemical", "details": "compared to inhibitor 35a"}, "HIV-1LAI": {"tested_on": "HIV-1LAI", "assay": "Antiviral activity in MT-2 human T-lymphoid cells exposed to HIV-1LAI, MTT assay", "format": "cell-based"}},
  "data": [
    {"molecule": "COC(=O)N[C@H](C(=O)N[C@@H](Cc1ccccc1)[C@@H](O)CN(Cc1ccc(-c2ccccn2)cc1)NC(=O)[C@@H](NC(=O)OC)C(C)(C)C)C(C)(C)C", "note": "[ATV, atazanavir]", "values": [
      {"measurement": "fold change of EC50 compared to wild-type HIV-1ERS104pre", "setting": "HIV-1MDR/G (X4)", "result": 7},
      {"measurement": "fold change of EC50 compared to wild-type HIV-1ERS104pre", "setting": "HIV-1MDR/B (X4)", "result": 174},
      {"measurement": "fold change of EC50 compared to wild-type HIV-1ERS104pre", "setting": "HIV-1MDR/MM (R5)", "result": 76},
      {"measurement": "fold change of EC50 compared to wild-type HIV-1ERS104pre", "setting": "HIV-1MDR/TM (X4)", "result": 28},
      {"measurement": "fold change of EC50 compared to wild-type HIV-1ERS104pre", "setting": "HIV-1MDR/JSL (R5)", "result": 109},
      {"measurement": "fold change of EC50 compared to wild-type HIV-1ERS104pre", "setting": "HIV-1MDR/C (X4)", "result": 14}
    ]},
    {"molecule": "COc1ccc(S(=O)(=O)N(CC(C)C)C[C@@H](O)[C@H](Cc2ccccc2)NC(=O)O[C@@H]2CCO[C@@H]3OCC[C@@H]32)cc1", "note": "[Inhibitor 35b, (3aR,4R,7aS)-Hexahydro-2H-furo[2,3-b]pyran-4-yl ((2S,3R)-3-hydroxy-4-(N-isobutyl-4-methoxyphenylsulfonamido)-1-phenylbutan-2-yl)carbamate]", "values": [
      {"measurement": "fold change in Ki (loss of enzyme inhibitory potency)", "setting": "HIV-1 protease", "result": "> 20", "unit": "fold"},
      {"measurement": "ID50 (antiviral activity)", "setting": "HIV-1LAI; MT-2 cells exposed to HIV-1LAI", "result": 19, "unit": "nM"}
    ]},
    {"molecule": "COc1ccc(S(=O)(=O)N(CC(C)C)C[C@@H](O)[C@H](Cc2ccccc2)NC(=O)O[C@H]2CCC[C@H]3OCC[C@@H]23)cc1", "note": "[Inhibitor 35c, (3aR,4S,7aR)-Octahydrobenzofuran-4-yl (2S,3R)-3-hydroxy-4-(N-isobutyl-4-methoxyphenylsulfonamido)-1-phenylbutan-2-yl carbamate]", "values": [
      {"measurement": "fold change in Ki (loss of enzyme inhibitory potency)", "setting": "HIV-1 protease", "result": 2, "unit": "fold"},
      {"measurement": "fold decrease in antiviral activity", "setting": "HIV-1LAI; compared to inhibitor 35a", "result": 16, "unit": "fold"}
    ]},
    {"molecule": "COc1ccc(S(=O)(=O)N(CC(C)C)C[C@@H](O)[C@H](Cc2ccccc2)NC(=O)O[C@H]2CCO[C@H]3COC[C@H]32)cc1", "note": "[Inhibitor 35f, (4S,4aS,7aR)-Hexahydro-2H-furo[3,4-b]pyran-4-yl ((2S,3R)-3-hydroxy-4-(N-isobutyl-4-methoxyphenylsulfonamido)-1-phenylbutan-2-yl)carbamate]", "values": [
      {"measurement": "antiviral activity (in words)", "setting": "HIV-1LAI; MT-2 cells exposed to HIV-1LAI", "result": "no antiviral activity"}
    ]}
  ]
}
